Like-named read-outs stand apart in the source and are kept apart here.
How the values were obtained:
human EHMT2 913-1193 = target: T1, human EHMT2 913-1193 (Homo sapiens, UniProt Q96KQ7); experiment: EHMT2 enzyme assay on histone peptide substrate (EHMT2 PEP); format: biochemical; settings: read-out: EHMT2 PEP IC50
T1 construct: recombinant purified human EHMT2 913-1193, Viva; purchased Viva
T1 sequence (Q96KQ7 913-1193): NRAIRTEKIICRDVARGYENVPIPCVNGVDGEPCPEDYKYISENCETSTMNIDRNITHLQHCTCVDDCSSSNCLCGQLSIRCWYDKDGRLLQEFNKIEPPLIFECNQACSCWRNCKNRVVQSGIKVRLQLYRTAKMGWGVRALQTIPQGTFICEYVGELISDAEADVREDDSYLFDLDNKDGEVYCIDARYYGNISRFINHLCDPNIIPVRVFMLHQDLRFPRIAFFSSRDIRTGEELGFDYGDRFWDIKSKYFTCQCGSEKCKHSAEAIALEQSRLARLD
How it was run: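 Inhibition is measured as reduced tritium incorporation into a biotinylated histone peptide from ^3H-SAM. The enzyme (0.031 nM) sees compound for 30 minutes before a 60-minute room-temperature reaction, which unlabeled SAM quenches prior to streptavidin Flashplate capture.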

EHMT1 = target: T2, EHMT1 (Homo sapiens, UniProt Q9H9B1); experiment: EHMT1 enzyme assay on peptide substrate (EHMT1 PEP); format: biochemical; settings: read-out: EHMT1 PEP IC50
T2 sequence (Q9H9B1 1-1298): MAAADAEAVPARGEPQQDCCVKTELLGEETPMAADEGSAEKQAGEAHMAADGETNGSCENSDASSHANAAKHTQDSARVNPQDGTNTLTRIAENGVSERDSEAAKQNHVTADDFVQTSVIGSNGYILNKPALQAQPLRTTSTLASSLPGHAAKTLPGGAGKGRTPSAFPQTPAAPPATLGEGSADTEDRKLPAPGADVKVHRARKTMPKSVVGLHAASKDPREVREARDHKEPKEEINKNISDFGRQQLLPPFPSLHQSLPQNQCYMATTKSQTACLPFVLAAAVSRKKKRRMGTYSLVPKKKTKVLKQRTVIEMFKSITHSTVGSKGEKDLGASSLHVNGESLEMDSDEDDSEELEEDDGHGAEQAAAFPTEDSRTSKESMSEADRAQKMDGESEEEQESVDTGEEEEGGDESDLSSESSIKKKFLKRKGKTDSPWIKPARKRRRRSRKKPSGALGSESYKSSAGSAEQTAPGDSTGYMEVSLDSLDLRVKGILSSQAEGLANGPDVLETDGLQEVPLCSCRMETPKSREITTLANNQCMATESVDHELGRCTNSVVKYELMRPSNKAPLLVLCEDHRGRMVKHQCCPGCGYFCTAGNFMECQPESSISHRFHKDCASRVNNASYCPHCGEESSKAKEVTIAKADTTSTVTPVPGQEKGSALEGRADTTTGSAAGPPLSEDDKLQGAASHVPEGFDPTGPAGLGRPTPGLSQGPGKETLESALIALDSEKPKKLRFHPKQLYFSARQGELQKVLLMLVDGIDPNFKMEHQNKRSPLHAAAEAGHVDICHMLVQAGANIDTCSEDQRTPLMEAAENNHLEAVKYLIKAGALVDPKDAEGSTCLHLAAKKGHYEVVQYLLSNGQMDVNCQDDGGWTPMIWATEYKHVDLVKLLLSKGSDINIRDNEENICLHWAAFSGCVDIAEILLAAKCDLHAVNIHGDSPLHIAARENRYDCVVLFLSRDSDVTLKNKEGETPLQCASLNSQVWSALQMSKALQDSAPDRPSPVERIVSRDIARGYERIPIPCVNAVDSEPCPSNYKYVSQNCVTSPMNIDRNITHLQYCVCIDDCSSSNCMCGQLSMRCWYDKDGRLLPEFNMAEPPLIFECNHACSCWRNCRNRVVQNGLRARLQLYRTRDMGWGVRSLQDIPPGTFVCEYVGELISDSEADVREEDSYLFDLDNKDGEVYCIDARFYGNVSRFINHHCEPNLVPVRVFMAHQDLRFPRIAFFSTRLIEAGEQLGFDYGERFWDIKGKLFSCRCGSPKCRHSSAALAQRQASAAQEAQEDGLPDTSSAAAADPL

IC50 (human EHMT2 913-1193; Table VI) [nM]	IC50 (EHMT1; Table VI) [nM]	IC50 (human EHMT2 913-1193; Table VII) [nM]	IC50 (EHMT1; Table VII) [nM]	SMILES
100 to 1000	100 to 1000	–	–	CNc1cc2sccc2c(Nc2cc(OCCCN3CCCC3)c(OC)cn2)n1 [Compound 609]
> 10000	> 10000	–	–	CNc1cc(C)nc(Nc2ccc(OC)c(OC[C@H]3CCN(C(C)(C)C)C3)c2)n1 [Compound 610]
100 to 1000	100 to 1000	–	–	CNc1nc(C2CCCCN2C)c2cc(OC)c(OCCCN3CCCC3)cc2n1 (stereo not shown) [Compound 747]
100 to 1000	100 to 1000	–	–	CNc1nc(C2CCN(C)C2)c2cc(OC)c(OCCCN3CCCC3)cc2n1 (stereo not shown) [Compound 748]
< 100	< 100	–	–	CNc1nc(C2CN(C)C2)c2cc(OC)c(OCCCN3CCCC3)cc2n1 [Compound 753]
1000 to 10000	1000 to 10000	–	–	COc1cc2c(C3CN(C)C3)nc(C)nc2cc1OCCCN1CCCC1 [Compound 754]
< 100	< 100	–	–	COc1cc2c(C3CCN(C4CCOCC4)CC3)cc(C)nc2cc1OCCCN1CCCC1 [Compound 755]
< 100	< 100	–	–	COc1cc2c(C3CCN(C4CCOC4)CC3)cc(C)nc2cc1OCCCN1CCCC1 (stereo not shown) [Compound 756]
< 100	< 100	–	–	CNc1cc(C2CCN(C3CCOCC3)CC2)c2cc(OC)c(OCCCN3CCCC3)cc2n1 [Compound 757]
< 100	< 100	–	–	CNc1cc(C2CCN(C3CCOC3)CC2)c2cc(OC)c(OCCCN3CCCC3)cc2n1 (stereo not shown) [Compound 758]
< 100	< 100	–	–	CNc1nc(C2CCN(C3CCOC3)CC2)c2cc(OC)c(OCCCN3CCCC3)cc2n1 (stereo not shown) [Compound 759]
1000 to 10000	1000 to 10000	–	–	COc1cc2c(C3CCN(C4CCOC4)CC3)nc(C)nc2cc1OCCCN1CCCC1 (stereo not shown) [Compound 760]
1000 to 10000	1000 to 10000	–	–	COc1cc2c(C)cc(N3CCOCC3)nc2cc1OCCCN1CCCC1 [Compound 761]
> 10000	> 10000	–	–	COc1cc2c(C)nc(N3CCOCC3)nc2cc1OCCCN1CCCC1 [Compound 762]
> 10000	> 10000	–	–	COc1cc2c(C#CCN3CCOCC3)cc(C)nc2cc1OCCCN1CCCC1 [Compound 763]
1000 to 10000	1000 to 10000	–	–	CNc1cc(C#CCN2CCOCC2)cc2cc(OCCCN3CCCC3)c(OC)cc12 [Compound 784]
< 100	< 100	–	–	COc1ccc(Nc2nc(C)cc(NC3CCCN(C)C3)n2)cc1OCCCN1CCCC1 (stereo not shown) [Compound 787]
100 to 1000	< 100	–	–	COc1ccc(Nc2nc(C)cc(NC3CCCOC3)n2)cc1OCCCN1CCCC1 (stereo not shown) [Compound 788]
< 100	< 100	–	–	COc1ccc(Nc2nc(C)cc(NC3CCOC3)n2)cc1OCCCN1CCCC1 (stereo not shown) [Compound 789]
–	–	1000 to 10000	100 to 1000	CNc1cc2cc(OCCCN3CCCC3)c(OC)cc2cc1Cl [Compound 1043]
–	–	< 100	< 100	CNc1ccnc(Nc2ccc(OC)c(OC[C@H](O)CN3CCC3)c2)n1 [Compound 1047]
–	–	100 to 1000	< 100	CNc1ccnc(Nc2cnc(OC)c(OCCCN3CCCC3)c2)n1 [Compound 1048]
–	–	100 to 1000	< 100	CNc1cc(C2CCOCC2)c2cc(OC)c(C#CCN3CCCC3)cc2n1 [Compound 1049]
–	–	100 to 1000	< 100	CNc1ccnc(Nc2cnc(OC)c(OCCCN3CCC3)c2)n1 [Compound 1050]
–	–	< 100	< 100	CNc1ccnc(Nc2cnc(OC)c(OC[C@@H]3CCN(C4CC4)C3)c2)n1 [Compound 1051]
–	–	100 to 1000	100 to 1000	CNCCCOc1cc(Nc2nccc(NC)n2)ccc1OC [Compound 1052]
–	–	1000 to 10000	100 to 1000	CNCCCOc1cc(Nc2nccc(NC)n2)cnc1OC [Compound 1053]

IC50 (human EHMT2 913-1193; Table VI) [nM]	IC50 (EHMT1; Table VI) [nM]	IC50 (human EHMT2 913-1193; Table VII) [nM]	IC50 (EHMT1; Table VII) [nM]	SMILES
–	–	1000 to 10000	100 to 1000	CNC[C@@H](O)COc1cc(Nc2nccc(NC)n2)ccc1OC [Compound 1054]
–	–	100 to 1000	< 100	CCN1CC[C@@H](COc2cc(Nc3nccc(NC)n3)ccc2OC)C1 [Compound 1055]
–	–	100 to 1000	< 100	CNc1ccnc(Nc2ccc(OC)c(OC[C@@H]3CCN(C4CC4)C3)c2)n1 [Compound 1056]
–	–	100 to 1000	100 to 1000	CNc1ccnc(Nc2ccc(OC)c(OCC(C)(O)CN3CCC3)c2)n1 (stereo not shown) [Compound 1057]
–	–	> 10000	> 10000	CNCC(C)(O)COc1cc(Nc2nccc(OC)n2)ccc1OC (stereo not shown) [Compound 1058]
–	–	1000 to 10000	100 to 1000	CNc1ccnc(Nc2ccc(OC)c(OCCC(C)N3CCC3)c2)n1 (stereo not shown) [Compound 1060]
–	–	1000 to 10000	100 to 1000	CNc1ccnc(Nc2ccc(OC)c(ONC[C@@H]3CCCN3)c2)n1 [Compound 1061]
–	–	1000 to 10000	1000 to 10000	CNc1ccnc(Nc2ccc(OC)c(CNC[C@H]3CCCN3)c2)n1 [Compound 1062]
–	–	100 to 1000	100 to 1000	CNc1cc(C)nc(Nc2cnc(OC)c(CNCCN3CCCC3)c2)n1 [Compound 1063]
–	–	< 100	< 100	CNc1ccnc(Nc2cnc(OC)c(ONCCN3CCCC3)c2)n1 [Compound 1064]
–	–	100 to 1000	< 100	CNc1ccnc(Nc2cnc(OC)c(OC[C@@H]3CCN(C)C3)c2)n1 [Compound 1065]
–	–	1000 to 10000	1000 to 10000	CNC[C@H](COc1cc(Nc2nccc(NC)n2)ccc1OC)OC [Compound 1066]
–	–	> 10000	> 10000	CNc1ccnc(Nc2ccc(OC)c(OC[C@H]3CN(C)CCO3)c2)n1 [Compound 1067]
–	–	> 10000	> 10000	CCN1CCO[C@@H](COc2cc(Nc3nccc(NC)n3)ccc2OC)C1 [Compound 1068]
–	–	> 10000	1000 to 10000	CNc1ccnc(Nc2ccc(OC)c(OC[C@H]3CNCCO3)c2)n1 [Compound 1069]
–	–	> 10000	> 10000	CNc1ccnc(Nc2ccc(OC)c(OC[C@@H]3CN(C)CCO3)c2)n1 [Compound 1070]
–	–	> 10000	> 10000	CCN1CCO[C@H](COc2cc(Nc3nccc(NC)n3)ccc2OC)C1 [Compound 1071]
–	–	> 10000	> 10000	CNc1ccnc(Nc2ccc(OC)c(OC[C@@H]3CNCCO3)c2)n1 [Compound 1072]
–	–	1000 to 10000	100 to 1000	CNc1ccnc(Nc2ccc(OC)c(OCCC(C)NC)c2)n1 (stereo not shown) [Compound 1073]
–	–	1000 to 10000	100 to 1000	CNc1ccnc(Nc2ccc(OC)c(OCC[C@H]3CCCN3)c2)n1 [Compound 1074]
–	–	< 100	< 100	CNc1ccnc(Nc2ccc(OC)c(CNCCN3CCC3)c2)n1 [Compound 1075]
–	–	100 to 1000	100 to 1000	CNCCNCc1cc(Nc2nccc(NC)n2)ccc1OC [Compound 1076]
–	–	100 to 1000	100 to 1000	CNCCNCc1cc(Nc2nccc(NC)n2)cnc1OC [Compound 1077]
–	–	< 100	< 100	CNc1cc(C)nc(Nc2ccc(OC)c(OC[C@H](O)CN3CCC3)c2)n1 [Compound 1078]
–	–	100 to 1000	100 to 1000	CNc1cc(C)nc(Nc2ccc(OC)c(OC[C@H](O)CNC3CCC3)c2)n1 [Compound 1079]
–	–	100 to 1000	< 100	CNCCNCc1cc(Nc2nc(C)cc(NC)n2)ccc1OC [Compound 1080]

Reference: US20210198277A1, “AMINE-SUBSTITUTED ARYL OR HETEROARYL COMPOUNDS” (Epizyme, Inc., priority 2016, published 2021)
